Assay results reported in patent US12097212B2, “Use of cationic steroidal antimicrobial compounds to deactivate coronavirus” (Brigham Young University, priority 2020, dated 2024).
Read-outs that look alike come from different tables or passages of the source. Marks after values point to notes of the source that are not given here.

Tested on: SARS-CoV-2
Format: cell-based
Conditions: 30-minute contact time at 22 ± 2° C.; for Virus (CCID50/0.1 mL): average of 3 replicates ± standard deviation; for LRV (log reduction value): compared to the virus control

Row | Structure (SMILES) | Virus (CCID50/0.1 mL) (35%) | LRV (log reduction value) (35%) [log10] | Virus (CCID50/0.1 mL) (1 μg/mL) | LRV (log reduction value) (1 μg/mL) [log10] | Virus (CCID50/0.1 mL) (5 μg/mL) | LRV (log reduction value) (5 μg/mL) [log10] | Virus (CCID50/0.1 mL) (25 μg/mL) | LRV (log reduction value) (25 μg/mL) [log10] | Virus (CCID50/0.1 mL) (100 μg/mL) | LRV (log reduction value) (100 μg/mL) [log10]
1 | CCO [Ethanol, reference compound] | 0.8 ± 0.23 | 3.6 | – | – | – | – | – | – | – | –
2 | CCCCCCCCCCCCNCCC[C@@H](C)[C@H]1CC[C@H]2[C@@H]3[C@H](OCCCN)C[C@@H]4C[C@H](OCCCN)CC[C@]4(C)[C@H]3C[C@H](OCCCN)[C@]12C.Cl.Cl.Cl.Cl [CSA-131HC1] | – | – | 4.1 ± 0.40 | 0.3 | 4.1 ± 0.17 | 0.3 | 1.2 ± 0.54 | 3.2 | <1.7**** CCID50/0.1 mL | >2.7
3 | CCCCCCCCOC(=O)CC[C@@H](C)[C@H]1CC[C@H]2[C@@H]3[C@H](OC(=O)CCN)C[C@@H]4C[C@H](OC(=O)CCN)CC[C@]4(C)[C@H]3C[C@H](OC(=O)CCN)[C@]12C [CSA-44HC1] | – | – | 4.4 ± 0.12 | 0 | 3.9 ± 0.17 | 0.5 | 0.8 ± 0.19 | 3.6 | 1.2 ± 0.94 CCID50/0.1 mL | 3.2
